Measurements published in patent US20120088746A1, “AMIDE DERIVATIVES AS ION-CHANNEL LIGANDS AND PHARMACEUTICAL COMPOSITIONS AND METHODS OF USING THE SAME” (PFIZER INC., priority 2006, published 2012).
Counter-ions that a name gives are not always drawn.

target: human VR1 (Homo sapiens, UniProt Q8NER1); assay: Acid stimulation assay (acid-induced intracellular calcium change, FDSS 6000); type: cell-based; conditions: final assay buffer pH5.8, 15 min pre-incubation, read-out: IC50 (nM) Low pH
Text: VR1 antagonistic activity can be determined by the Ca^2+ imaging assay using human VR1 highly expressing cells. The cells that highly express human VR1 receptors are obtainable from several different conventional methods. The one standard method is cloning from human Dorsal Root Ganglion (DRG) or kidney according to the methods such as described in the journal article; Nature, 389, pp 816-824, 1997. Alternatively VR1 receptors highly expressing human keratinocytes are also known and published in the journal article (Biochemical and Biophysical Research Communications, 291, pp 124-129, 2002). […] Furthermore, the method to up regulate human VR1 gene, which is usually a silent gene or don't produce detectable level of VR1 receptors, is also available to obtain propriety cells. Such genetic modification method was described in detail; Nat. Biotechnol., 19, pp 440-445, 2001.
The cells that express human VR1 receptors were maintained in culture flask at 37° C. in an environment containing 5% CO2 until use in the assay. The intracellular Ca^2+ imaging assay to determine VR1 antagonistic activities were done by following procedures.
The culture medium was removed from the flask and fura-2/AM fluorescent calcium indicator was added to the flask at a concentration of 5 μM in the medium. The flask was placed in CO2 incubator and incubated for 1 hour. Then the cells expressing the human VR1 receptors were detached from the flask follow by washing with phosphate buffer saline, PBS(−) and re-suspended in assay buffer. The 80 tit of aliquot of cell suspension (3.75×10^5 cells/ml) was added to the assay plate and the cells were spun down by centrifuge (950 rpm, 20° C., 3 minutes).
(§1) The Acid-induced changes in the intracellular calcium concentration were monitored using FDSS 6000 (Hamamatsu Photonics, Japan), a fluorometric imaging system. The cell suspension in resting buffer (HBSS supplemented with 10 mM HEPES, pH 7.4) were pre-incubated with varying concentrations of the test compounds or resting buffer (buffer control) for 15 minutes at room temperature under the dark condition. The cells were automatically added the stimulating solution (HBSS supplemented with MES, final assay buffer pH5.8) by the FDSS 6000.
as §1, with “7.4) was” for “7.4) were”, “under” for “under the”, “dark conditions.” for “dark condition.”, “added to” for “added”

Chain of human VR1 (Q8NER1 whole entry): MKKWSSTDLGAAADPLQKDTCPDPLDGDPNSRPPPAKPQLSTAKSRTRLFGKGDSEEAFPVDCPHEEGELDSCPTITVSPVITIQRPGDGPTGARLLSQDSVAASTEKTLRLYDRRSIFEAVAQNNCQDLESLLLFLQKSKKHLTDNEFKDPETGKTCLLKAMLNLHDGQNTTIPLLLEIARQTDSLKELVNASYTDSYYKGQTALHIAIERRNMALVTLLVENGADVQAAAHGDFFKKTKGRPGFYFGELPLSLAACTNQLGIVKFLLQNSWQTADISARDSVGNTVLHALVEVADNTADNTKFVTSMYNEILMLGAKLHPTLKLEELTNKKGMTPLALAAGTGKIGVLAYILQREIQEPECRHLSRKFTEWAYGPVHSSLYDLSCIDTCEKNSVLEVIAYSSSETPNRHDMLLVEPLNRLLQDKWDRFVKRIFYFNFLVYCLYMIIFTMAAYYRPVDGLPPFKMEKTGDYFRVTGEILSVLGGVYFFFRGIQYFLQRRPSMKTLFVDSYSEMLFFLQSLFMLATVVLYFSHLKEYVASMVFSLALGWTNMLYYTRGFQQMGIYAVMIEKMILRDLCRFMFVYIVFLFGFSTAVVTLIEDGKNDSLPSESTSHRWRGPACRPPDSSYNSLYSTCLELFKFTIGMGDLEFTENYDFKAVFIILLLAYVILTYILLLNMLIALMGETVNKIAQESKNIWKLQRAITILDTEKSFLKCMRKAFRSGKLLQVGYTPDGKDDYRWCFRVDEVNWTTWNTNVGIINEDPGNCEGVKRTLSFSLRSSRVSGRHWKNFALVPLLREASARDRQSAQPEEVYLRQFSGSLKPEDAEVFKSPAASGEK

| SMILES | IC50 [nM] |
| --- | --- |
| Cc1cc([C@@H](C)NC(=O)c2cnc3cc(C(C)(C)C)ccc3c2)ccc1NS(C)(=O)=O [Example 33, 7-TERT-BUTYL-N-((1R)-1-{3-METHYL-4-[(METHYLSULFONYL)AMINO]PHENYL}ETHYL)-QUINOLINE-3-CARBOXAMIDE] | 56 |
| Cc1cc([C@@H](C)NC(=O)c2cc3ccc(Cl)cc3nc2C)ccc1NS(C)(=O)=O [Example 23, 7-CHLORO-2-METHYL-QUINOLINE-3-CARBOXYLIC ACID [(R)-1-(4-METHANESULFONYL-AMINO-3-METHYLPHENYL)ETHYL]AMIDE] | 379 |
| Cc1cc([C@@H](C)NC(=O)c2ccc3cc(C4CC4)ccc3c2)c(Cl)cc1NS(C)(=O)=O [Example 52, (R)—N-(1-(2-CHLORO-5-METHYL-4-(METHYLSULFONAMIDO)PHENYL)ETHYL)-6-CYCLOPROPYL-2-NAPHTHAMIDE] | 22 |
| Cc1cc([C@@H](C)NC(=O)c2ccc3nc(N4CCCC4)ccc3c2)c(F)cc1NS(C)(=O)=O [Example 68, (R)—N-(1-(2-FLUORO-5-METHYL-4-(METHYLSULFONAMIDO)PHENYL)ETHYL)-2-(PYRROLIDIN-1-YL)QUINOLINE-6-CARBOXAMIDE] | 293 |
| Cc1cc([C@@H](C)NC(=O)c2ccc3cc(C(C)C)ccc3n2)ccc1NS(C)(=O)=O [Example 9, 6-ISOPROPYL-N-((1R)-1-{3-METHYL-4-[(METHYLSULFONYL)AMINO]PHENYL}ETHYL)-QUINOLINE-2-CARBOXAMIDE] | 714 |
| Cc1cc([C@@H](C)NC(=O)c2ccc3nc(C(F)(F)F)nc(N4CCOCC4)c3c2)c(F)cc1NS(C)(=O)=O [Example 112, 4-MORPHOLIN-4-YL-2-TRIFLUOROMETHYL-QUINAZOLINE-6-CARBOXYLIC ACID [(R)-1-(2-FLUORO-4-METHANESULFONYLAMINO-5-METHYL-PHENYL)-ETHYL]-AMIDE] | 33 |
| C[C@@H](NC(=O)c1ccc2cc(C(C)(C)C)ccc2n1)c1cc(F)c(NS(C)(=O)=O)c(F)c1 [Example 7, 6-TERT-BUTYL-N-((1R)-1-{3,5-DIFLUORO-4-[(METHYLSULFONYL)AMINO]PHENYL}-ETHYL)QUINOLINE-2-CARBOXAMIDE] | 1 |
| Cc1cc([C@@H](C)NC(=O)c2ccc3nc(C(F)(F)F)cc(N4CCCCC4)c3c2)c(F)cc1NS(C)(=O)=O [Example 70, 4-PIPERIDIN-1-YL-2-TRIFLUOROMETHYL-QUINOLINE-6-CARBOXYLIC ACID [(R)-1-(2-FLUORO-4-METHANESULFONYLAMINO-5-METHYL-PHENYL)-ETHYL]-AMIDE] | 26 |
| CC(C)c1ccc2cc(C(=O)N[C@H](C)c3cc(F)c(NS(C)(=O)=O)c(F)c3)cnc2c1 [Example 39, N-((1R)-1-{3,5-DIFLUORO-4-[(METHYLSULFONYL)AMINO]PHENYL}ETHYL)-7-ISOPROPYL-QUINOLINE-3-CARBOXAMIDE] | 13 |
| Cc1cc([C@@H](C)NC(=O)c2ccc3cc(-n4cccn4)ccc3c2)c(F)cc1NS(C)(=O)=O [Example 105, 6-PYRAZOL-1-YL-NAPHTHALENE-2-CARBOXYLIC ACID [(R)-1-(2-FLUORO-4-METHANESULFONYLAMINO-5-METHYL-PHENYL)-ETHYL]-AMIDE] | 147 |
| Cc1cc([C@@H](C)NC(=O)c2ccc3cc(C(C)(C)O)ccc3n2)ccc1NS(C)(=O)=O [Example 16] | 71 |
| Cc1cc([C@@H](C)NC(=O)c2ccc3nc(C(F)(F)F)cc(N4CC[C@H](O)C4)c3c2)c(F)cc1NS(C)(=O)=O [Example 91, 4-((S)-3-HYDROXY-PYRROLIDIN-1-YL)-2-TRIFLUOROMETHYLQUINOLINE-6-CARBOXYLIC ACID [(R)-1-(2-FLUORO-4-METHANESULFONYLAMINO-5-METHYLPHENYL)ETHYL]AMIDE] | 366 |
| CCOC(=O)N1CCN(c2nc(C(F)(F)F)nc3ccc(C(=O)N[C@H](C)c4cc(C)c(NS(C)(=O)=O)cc4F)cc23)CC1 [Example 96, 4-{6-[(R)-1-(2-FLUORO-4-METHANESULFONYLAMINO-5-METHYL-PHENYL)-ETHYLCARBAMOYL]-2-TRIFLUOROMETHYL-QUINAZOLIN-4-YL}-PIPERAZINE-1-CARBOXYLIC ACID ETHYL ESTER] | 41 |
| C[C@@H](NC(=O)c1cnc2cc(C(C)(C)C)ccc2c1)c1ccc(NS(C)(=O)=O)cc1 [Example 41, 7-TERT-BUTYL-N-((1R)-1-{4-[(METHYLSULFONYL)AMINO]PHENYL}ETHYL)QUINOLINE-3-CARBOXAMIDE] | 29 |
| C[C@@H](NC(=O)c1ccc2nc(C(C)(C)C)ccc2c1)c1cc(F)c(NS(C)(=O)=O)c(F)c1 [Example 15, 2-TERT-BUTYL-N-((1R)-1-{3,5-DIFLUORO-4-[(METHYLSULFONYL)AMINO]PHENYL}ETHYL)-QUINOLINE-6-CARBOXAMIDE HYDROCHLORIDE] | 24 |
| CC(=O)c1ccc2nc(C(=O)N[C@H](C)c3ccc(NS(C)(=O)=O)c(C)c3)ccc2c1 [Example 28, 6-ACETYL-N-((1R)-1-{3-METHYL-4-[(METHYLSULFONYL)AMINO]PHENYL}ETHYL)-QUINOLINE-2-CARBOXAMIDE] | 187 |

Results, then the compound that gave them:

| IC50 [nM] | SMILES |
| --- | --- |
| 3 | Cc1cc([C@@H](C)NC(=O)c2ccc3cc(C4CC4)ccc3c2)ccc1NS(C)(=O)=O [Example 22, 6-CYCLOPROPYLNAPHTHALENE-2-CARBOXYLIC ACID [(R)-1-(4-METHANESULFONYL-AMINO-3-METHYLPHENYL)ETHYL]AMIDE] |
| 44 | Cc1cc([C@@H](C)NC(=O)c2ccc3cc(N4CCCC4)ccc3c2)ccc1NS(C)(=O)=O [Example 21, 6-PYRROLIDIN-1-YL-NAPHTHALENE-2-CARBOXYLIC ACID [(R)-1-(4-METHANESULFONYL-AMINO-3-METHYLPHENYL)ETHYL]AMIDE] |
| 8 | COc1ccc2cc(C(=O)N[C@H](C)c3ccc(NS(C)(=O)=O)c(C)c3)ccc2c1 [Example 20, 6-METHOXYNAPHTHALENE-2-CARBOXYLIC ACID [(R)-1-(4-METHANESULFONYL-AMINO-3-METHYLPHENYL)ETHYL]AMIDE] |
| 127 | Cc1cc([C@@H](C)NC(=O)c2ccc3cc(C(C)(C)C)ccc3c2)c(F)cc1NS(C)(=O)=O [Example 13, 6-TERT-BUTYL-N-((1R)-1-{2-FLUORO-5-METHYL-4-[(METHYLSULFONYL)AMINO]PHENYL}-ETHYL)-2-NAPHTHAMIDE] |
| 13 | C[C@@H](NC(=O)c1ccc2cc(C(F)(F)F)ccc2c1)c1ccc(NS(C)(=O)=O)c(CO)c1 [Example 74, N-((1R)-1-{3-(HYDROXYMETHYL)-4-[(METHYLSULFONYL)AMINO]PHENYL}ETHYL)-6-(TRIFLUOROMETHYL)-2-NAPHTHAMIDE] |
| 26 | C[C@@H](NC(=O)c1cnc2cc(C(F)(F)F)ccc2c1)c1ccc(NS(C)(=O)=O)c(F)c1 [Example 34, N-((1R)-1-{3-FLUORO-4-[(METHYLSULFONYL)AMINO]PHENYL}ETHYL)-7-(TRIFLUORO-METHYL)QUINOLINE-3-CARBOXAMIDE] |
| 4 | Cc1nc([C@@H](C)NC(=O)c2ccc3cc(C(C)(C)C)ccc3c2)ccc1NS(C)(=O)=O [Example 2, 6-TERT-BUTYL-N-((1R)-1-{6-METHYL-5-[(METHYLSULFONYL)AMINO]PYRIDIN-2-YL}ETHYL)-2-NAPHTHAMIDE] |
| 6 | Cc1cc([C@@H](C)NC(=O)c2ccc3nc(C(F)(F)F)ccc3c2)c(F)cc1NS(C)(=O)=O [Example 32, N-((1R)-1-{2-FLUORO-5-METHYL-4-[(METHYLSULFONYL)AMINO]PHENYL}ETHYL)-2-(TRIFLUOROMETHYL)QUINOLINE-6-CARBOXAMIDE] |
| 58 | Cc1cc([C@@H](C)NC(=O)c2ccc3cc(C(F)(F)F)ccc3n2)c(Cl)cc1NS(C)(=O)=O [Example 57, (R)—N-(1-(2-CHLORO-5-METHYL-4-(METHYLSULFONAMIDO)PHENYL)ETHYL)-6-(TRIFLUOROMETHYL)QUINOLINE-2-CARBOXAMIDE] |
| 4 | Cc1cc([C@@H](C)NC(=O)c2ccc3ccc(C(F)(F)F)cc3c2)ccc1NS(C)(=O)=O [Example 77] |
| 14 | Cc1cc([C@@H](C)NC(=O)c2ccc3cc(Br)ccc3c2)ccc1NS(C)(=O)=O [Example 17, 6-BROMONAPHTHALENE-2-CARBOXYLIC ACID [(R)-1-(4-METHANESULFONYLAMINO-3-METHYLPHENYL)ETHYL]AMIDE] |
